Consider 3 compounds from paper PMC8037948, “Assessing the In Vitro Inhibitory Effects on Key Enzymes Linked to Type-2 Diabetes and Obesity and Protein Glycation by Phenolic Compounds of Lauraceae Plant Species Endemic to the Laurisilva Forest” (Molecules, 2021).

Experiment [1] addresses T1, rat α-glucosidase (intestinal acetone powder from rat).
T1 construct: gene Si; supernatant of rat intestinal acetone powder (Sigma-Aldrich), crude extract; several alpha-glucosidases
Put plainly: p-nitrophenyl alpha-D-glucopyranoside hydrolysis, absorbance at […] nm. Format: biochemical. Conditions: alpha-pNPG, 0.1 M phosphate pH 6.9, 37 °C, 20 min; crude intestinal extract.

Experiment [2] deals with T2, human aldose reductase (HAR) (Homo sapiens, UniProt P15121).
T2 construct: gene AKR1B1; commercial enzyme from Prozomix
Nature of the experiment: NADPH absorbance at […] nm. Format: biochemical.

In the case of `C[C@H]1O[C@H](O[C@H]2[C@H](O)[C@@H](O)[C@@H](O[C@H]3[C@H](O)[C@@H](O)C(O)O[C@@H]3CO)O[C@@H]2CO)[C@H](O)[C@@H](O)[C@@H]1N[C@H]1C=C(CO)[C@@H](O)[C@H](O)[C@H]1O` (stereo partly drawn) [Acarbose], in experiment [1], the α-Glucosidase is 0.12 ± 0.01 mg/mL.
In the case of `OC[C@H]1NC[C@H](O)[C@@H](O)[C@@H]1O` [1-Deoxynojirimycin], the α-Glucosidase in experiment [1] was 0.01 ± 0.01 mg/mL.
In turn, `Oc1cc(O)c2c(c1)O[C@H](c1ccc(O)c(O)c1)[C@@H](O)C2` [(+)-Catechin] had an IC50 in experiment [2] of 2620 µM.

Usually IC50 stands for the concentration that gives 50% inhibition.
